molecular target: T1, integrin α 4 β 7 (Homo sapiens, UniProt P13612+P26010); experiment: VCAM antagonistic activity (VCAM-1/α 4 β 7 binding assay): binding of RPMI-8866 cells to VCAM-1; assay type: cell-based; conditions: fluorescent RPMI-8866 cells binding to recombinant human VCAM-1, 4 mM MnCl2, room temperature 30 minutes
T1 construct: lymphoma cell strain RPMI-8866 of human B cells, known to express integrin α 4 β 7; endogenous in cells; host or cells: RPMI-8866 (human B cell lymphoma line)
T1 sequence (P13612 34-1032): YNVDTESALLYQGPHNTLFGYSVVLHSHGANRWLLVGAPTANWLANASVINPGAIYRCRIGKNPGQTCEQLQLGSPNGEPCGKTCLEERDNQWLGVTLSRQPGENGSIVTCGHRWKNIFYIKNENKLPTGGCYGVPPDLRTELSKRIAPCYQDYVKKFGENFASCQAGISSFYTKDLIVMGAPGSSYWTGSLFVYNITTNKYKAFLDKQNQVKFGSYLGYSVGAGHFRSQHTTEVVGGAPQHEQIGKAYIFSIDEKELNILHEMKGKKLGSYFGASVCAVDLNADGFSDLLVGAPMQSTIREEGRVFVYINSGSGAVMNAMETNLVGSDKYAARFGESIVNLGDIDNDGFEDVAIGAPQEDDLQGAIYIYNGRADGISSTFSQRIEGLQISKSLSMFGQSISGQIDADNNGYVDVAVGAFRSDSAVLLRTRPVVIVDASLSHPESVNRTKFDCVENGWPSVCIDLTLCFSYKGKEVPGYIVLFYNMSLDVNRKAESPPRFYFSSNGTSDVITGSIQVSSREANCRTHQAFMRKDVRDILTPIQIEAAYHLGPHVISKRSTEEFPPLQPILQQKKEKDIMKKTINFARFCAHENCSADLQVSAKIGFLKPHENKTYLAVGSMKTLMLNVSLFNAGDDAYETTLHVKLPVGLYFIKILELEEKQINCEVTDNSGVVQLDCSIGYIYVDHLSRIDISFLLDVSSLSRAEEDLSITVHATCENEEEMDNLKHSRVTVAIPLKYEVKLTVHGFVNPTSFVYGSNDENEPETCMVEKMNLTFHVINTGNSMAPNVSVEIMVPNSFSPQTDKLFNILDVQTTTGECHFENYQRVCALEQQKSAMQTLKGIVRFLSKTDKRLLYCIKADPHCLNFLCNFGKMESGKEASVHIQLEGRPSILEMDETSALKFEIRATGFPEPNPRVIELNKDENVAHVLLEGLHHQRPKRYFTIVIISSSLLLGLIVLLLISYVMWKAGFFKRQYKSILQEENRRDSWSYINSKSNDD
T1 sequence (P26010 20-798): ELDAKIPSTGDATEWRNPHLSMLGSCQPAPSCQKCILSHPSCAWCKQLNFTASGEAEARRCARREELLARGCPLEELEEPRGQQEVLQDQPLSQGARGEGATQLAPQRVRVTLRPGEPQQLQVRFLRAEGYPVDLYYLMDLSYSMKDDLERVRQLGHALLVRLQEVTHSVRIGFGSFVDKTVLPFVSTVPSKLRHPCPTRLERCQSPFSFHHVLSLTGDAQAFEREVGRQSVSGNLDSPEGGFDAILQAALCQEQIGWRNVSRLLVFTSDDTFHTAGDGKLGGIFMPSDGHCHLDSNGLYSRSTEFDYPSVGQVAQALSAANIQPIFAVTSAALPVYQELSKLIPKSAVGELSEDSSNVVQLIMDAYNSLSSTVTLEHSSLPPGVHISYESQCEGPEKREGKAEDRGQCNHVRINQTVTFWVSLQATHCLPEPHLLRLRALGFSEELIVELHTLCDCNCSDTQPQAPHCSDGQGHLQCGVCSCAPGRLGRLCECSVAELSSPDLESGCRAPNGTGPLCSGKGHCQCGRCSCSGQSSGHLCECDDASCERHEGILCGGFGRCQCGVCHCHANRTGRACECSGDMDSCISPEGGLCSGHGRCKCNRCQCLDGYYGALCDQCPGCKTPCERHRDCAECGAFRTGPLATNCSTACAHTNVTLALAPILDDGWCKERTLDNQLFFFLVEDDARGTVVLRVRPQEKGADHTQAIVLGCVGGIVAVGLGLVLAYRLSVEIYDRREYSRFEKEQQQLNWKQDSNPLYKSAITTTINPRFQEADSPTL
Method: (Test Example) VCAM Antagonistic Activity (VCAM-1/α 4 β 7 Binding Assay)
The capacity of a test substance antagonistic to the binding of lymphoma cell strain RPMI-8866 of human B cells, known to express integrin α 4 β 7, to VCAM-1 was determined.
100 μl/well of a solution (500 ng/ml) of recombinant human VCAM-1 (R & D systems) solution diluted with buffer A (0.1 M NaHCO3, pH 9.6) was added to a micro titer plate having 96 wells (Nunc Maxisorp). After the incubation at 4° C. overnight, unbound VCAM-1 was removed by washing once with PBS. After completion of the washing, a buffer (buffer B) obtained by diluting Block Ace (Dainippon Pharmaceutical Co., Ltd.) with PBS to ¼ concentration was added in an amount of 150 μl/well. After the incubation at room temperature for 1 hour, buffer B was removed and the plate was washed with PBS once.
RPMI-8866 cells were incubated in Dulbecco modified Eagle medium containing 10 μg/ml of Calcein-AM (Wako Pure Chemical Industries, Ltd.) (SIGMA, hereinafter referred to as “DMEM”) at 37° C. for 30 minutes to label with fluorescence. The cells were again suspended in a binding buffer (20 mM HEPES, DMEM containing 0.1% BSA) containing 4 mM of MnCl2.
50 μl of a test substance of various concentrations obtained by the dilution with the binding buffer was added to the plate. Immediately thereafter, 50 μl (final volume: 100 μl/well) of the fluorescent RPMI-8866 cells (4×10^6 cells/ml) were added thereto, and they were incubated at room temperature for 30 minutes. After the shaking on a plate shaker (IKA MTS-4) at 800 rpm for 30 seconds, the solution was immediately removed to remove the unbound cells. The fluorescence quantity of the bound cells remaining in the wells was determined with a fluorescent plate reader (Wallac 1420 ARVO multi-label counter) (filter excitation wave length: 485 nm, emission wave length: 535 nm). The fluorescent strength thus obtained is proportional to the number of RPMI-8866 cells bound to VCAM-1 and remaining on the plate. The binding rate of each test material in various concentrations was determined while the fluorescent strength of the test material-free well was determined to be 100%. The concentration IC50 for the 50% binding inhibition was calculated.
The antagonistic activity is shown as A when IC50 is 0.8 μmol/L or less, B when IC50 is above 0.8 μmol/L and 4 μmol/L or less, C when IC50 is above 4 μmol/L and 20 μmol/L or less, and D when IC50 is above 20 μmol/L and 100 μmol/L or less.

IC50 [µM]	SMILES
≤ 0.8	Cn1c(=O)n(-c2ccc(CC(CC(=O)c3c(Cl)cccc3Cl)C(=O)O)cc2)c(=O)c2ccccc21 (stereo not drawn) [Example 2, 4-(2,6-dichlorophenyl)-2-[4-(1-methyl-2,4-dioxo-1,2,3,4-tetrahydroquinazoline-3-yl)benzyl]-4-oxobutanoic acid]
0.8 to 4	Cn1c(=O)n(-c2ccc(CC(CC(=O)c3c(F)cccc3F)C(=O)O)cc2)c(=O)c2ccccc21 (stereo not drawn) [Example 3, 4-(2,6-difluorophenyl)-2-[4-(1-methyl-2,4-dioxo-1,2,3,4-tetrahydroquinazoline-3-yl)benzyl]-4-oxobutanoic acid]
20 to 100	Cn1c(=O)n(-c2ccc(CC(CC(O)c3c(Cl)cccc3Cl)C(=O)O)cc2)c(=O)c2ccccc21 (stereo not drawn) [Example 7, 4-(2,6-dichlorophenyl)-4-hydroxy-2-[4-(1-methyl-2,4-dioxo-1,2,3,4-tetrahydroquinazoline-3-yl)benzyl]butanoic acid]

Continued, molecule first:

SMILES	IC50 [µM]
Cn1c(=O)n(-c2ccc(CC(CC(=O)c3ccccc3)C(=O)O)cc2)c(=O)c2ccccc21 (stereo not drawn) [Example 1, 4-phenyl-2-[4-(1-methyl-2,4-dioxo-1,2,3,4-tetrahydroquinazoline-3-yl)benzyl]-4-oxobutanoic acid]	20 to 100
Cn1c(=O)n(-c2ccc(/C=C(\CC(=O)c3c(Cl)cccc3Cl)C(=O)O)cc2)c(=O)c2ccccc21 [Example 5, (E)-2-[2-(2,6-dichlorophenyl)-2-oxoethyl]-3-[4-(1-methyl-2,4-dioxo-1,2,3,4-tetrahydroquinazoline-3-yl)phenyl]acrylic acid]	≤ 0.8
COC(=O)c1ccccc1NC(=O)Nc1ccc(CC(CC(=O)c2c(Cl)cccc2Cl)C(=O)O)cc1 (stereo not drawn) [Example 6, 4-(2,6-dichlorophenyl)-2-[4-[[(2-methoxycarbonylphenyl)amino]carbonylamino]benzyl]-4-oxobutanoic acid]	20 to 100

Source: patent US7193108B2, “Phenylpropionic acid derivatives” (Ajinomoto Co., Inc., priority 2001, dated 2007)
